The text below walks through data of US20090124656A1, “Heterocyclic Oxime Compounds a Process for Their Preparation and Pharmaceutical Compositions Containing Them” (LES LABORATOIRES SERVIER, priority 2005, published 2009).

In the assay the test system is ob/ob mouse. In words: Antidiabetic and hypolipaemic effect in the ob/ob mouse. Type of assay: in vivo. As to conditions: dose of 3 mg/kg for 4 days. The source says:
Mutations in laboratory animals and also different sensitivities to dietary regimens have allowed the development of animal models having non-insulin-dependent diabetes and hyperlipidaemia associated with obesity and with resistance to insulin.
Genetic mice models (ob/ob) (Diabetes, 1982, 31 (1), 1-6) and Zucker (fa/fa) rats have been developed by various laboratories in order to understand the physiopathology of those diseases and test the effectiveness of new antidiabetic compounds (Diabetes, 1983, 32, 830-838).
Antidiabetic and Hypolipaemic Effect in the ob/ob Mouse
The 10-week-old female ob/ob mouse (Harlan) is used for the in vivo tests. The animals are kept in a light-darkness cycle of 12 hours at 25° C. The mouse has a basal hyperglycaemia of 2 g/l. The animals are randomly selected with regard to their glycaemia to form groups of six. […] […] The control groups receive the solvents under the same conditions as the treated groups.
The activity of the products is evaluated by measuring glycaemia 24 hours after the final administration and by measuring body weight daily.

As to `CCOC(Cc1ccc(OCCN2CCC(C)(C)c3cc(C(=O)C4CCCCC4)ccc32)cc1)C(=O)O` (stereo not drawn) [3-{4-[2-(6-(Cyclohexylcarbonyl)-4,4-dimethyl-3,4-dihydro-1(2H)-quinolinyl)ethoxy]phenyl}-2-ethoxypropanoic acid], the reduction in glycaemia was determined as 32%, the reduction in insulinaemia stood at 56% and the reduction in triglyceridaemia is on record as 57%.
